Assay results reported in ChEMBL document CHEMBL3745699, “Structural insights into mechanisms for inhibiting amyloid β42 aggregation by non-catechol-type flavonoids” (Bioorg Med Chem, 2016).
Calls of active or inactive are those of the source. The rule behind the calls is not given here.

How the values were obtained:
[1] = biological target: Amyloid-beta precursor protein (Homo sapiens) (UniProt P05067); assay: Inhibition of nucleation phase of HFIP-treated 15N-labelled wild type Amyloid beta (1 to 42) (unknown origin) assessed as time required for nucleation at 50 uM by Thioflavin-T fluorescence assay in presence of fibril seed
Sequence of Amyloid-beta precursor protein (Homo sapiens) (P05067 whole entry): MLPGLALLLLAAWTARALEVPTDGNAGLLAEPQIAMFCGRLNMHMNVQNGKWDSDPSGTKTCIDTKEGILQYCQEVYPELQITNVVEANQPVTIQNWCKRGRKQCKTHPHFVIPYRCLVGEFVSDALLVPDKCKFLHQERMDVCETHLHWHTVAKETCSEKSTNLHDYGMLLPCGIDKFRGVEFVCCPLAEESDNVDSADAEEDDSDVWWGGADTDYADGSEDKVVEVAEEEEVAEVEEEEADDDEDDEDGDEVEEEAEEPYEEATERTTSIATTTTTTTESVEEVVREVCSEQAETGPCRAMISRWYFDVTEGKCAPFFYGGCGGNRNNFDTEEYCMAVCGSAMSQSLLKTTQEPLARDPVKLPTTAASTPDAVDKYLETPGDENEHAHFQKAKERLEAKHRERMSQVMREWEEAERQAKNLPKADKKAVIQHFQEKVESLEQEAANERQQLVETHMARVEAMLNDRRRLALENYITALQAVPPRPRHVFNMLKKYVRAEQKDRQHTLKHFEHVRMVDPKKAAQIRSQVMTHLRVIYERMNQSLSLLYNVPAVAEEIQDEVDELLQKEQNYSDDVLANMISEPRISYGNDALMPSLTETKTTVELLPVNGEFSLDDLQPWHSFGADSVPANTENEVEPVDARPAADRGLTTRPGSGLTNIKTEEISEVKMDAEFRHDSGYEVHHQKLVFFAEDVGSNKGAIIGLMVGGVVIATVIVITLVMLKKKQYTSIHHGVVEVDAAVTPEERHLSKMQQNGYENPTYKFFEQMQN

[2] = Drug level treated with kaempferol after 4 hrs by LC/Q Tof-MS/MS analysis; format: physicochemical
[3] = biological target: Amyloid-beta precursor protein (Homo sapiens) (UniProt P05067); assay: Inhibition of wild type amyloid beta (1 to 42) (unknown origin) aggregation at 50 uM by Thioflavin-T fluorescence assay
[4] = biological target: Amyloid-beta precursor protein (Homo sapiens) (UniProt P05067); assay: Inhibition of wild type Amyloid beta (1 to 42) (unknown origin) aggregation at 50 uM under ambient condition by Thioflavin-T fluorescence assay
[5] = Stability of the compound assessed as compound remaining after 48 hrs by HPLC analysis; format: physicochemical; details: read-out: Stability
[6] = biological target: Amyloid-beta precursor protein (Homo sapiens) (UniProt P05067); details: 50 uM
Description: Inhibition of wild type Amyloid beta (1 to 42) (unknown origin) aggregation at 50 uM after 48 hrs by TEM analysis

[7] = Drug degradation assessed as autoxidation at 50 uM under argon atmosphere at 37 degC after 2 to 48 hrs by UV-visible spectrophotometric analysis in presence of wild type Amyloid beta (1 to 42) (unknown origin); format: physicochemical
[8] = Drug degradation assessed as autoxidation at 500 uM at 4 degC after 4 hrs by UV-visible spectrophotometric analysis in presence of wild type Amyloid beta (1 to 42) (unknown origin); format: physicochemical
[9] = biological target: Amyloid-beta precursor protein (Homo sapiens) (UniProt P05067); assay: Inhibition of elongation phase of HFIP-treated 15N-labelled wild type Amyloid beta (1 to 42) (unknown origin) at 50 uM by Thioflavin-T fluorescence assay in presence of fibril seed
[10] = biological target: Amyloid-beta precursor protein (Homo sapiens) (UniProt P05067); assay: Inhibition of Amyloid beta (1 to 42) 13,14 A2 mutant (unknown origin) aggregation at 50 uM by Thioflavin-T fluorescence assay
[11] = biological target: Amyloid-beta precursor protein (Homo sapiens) (UniProt P05067); assay: Inhibition of wild type Amyloid beta (1 to 42) (unknown origin) aggregation at 50 to 100 uM under anaerobic condition after 5 days by Thioflavin-T fluorescence assay
[12] = Drug degradation assessed as autoxidation at 50 uM at 37 degC after 2 to 48 hrs by UV-visible spectrophotometric analysis in presence of wild type Amyloid beta (1 to 42) (unknown origin); format: physicochemical
[13] = Drug metabolism assessed as 2,4,6-trihydroxybenzaldehyde formation after 4 hrs by LC/Q Tof-MS/MS analysis; format: physicochemical
[14] = Drug degradation assessed as autoxidation at 500 uM at 4 degC after 1 hr by UV-visible spectrophotometric analysis in presence of wild type Amyloid beta (1 to 42) (unknown origin) relative to morin and datiscetin; format: physicochemical; details: read-out: Drug degradation
[15] = biological target: Amyloid-beta precursor protein (Homo sapiens) (UniProt P05067); details: 500 uM
Description: Inhibition of elongation phase of HFIP-treated 15N-labelled wild type Amyloid beta (1 to 42) (unknown origin) at 500 uM by Thioflavin-T fluorescence assay in presence of fibril seed

[16] = Drug degradation after 48 hrs by HPLC analysis; format: physicochemical; details: read-out: Drug degradation

| SMILES | TIME [1] | Drug metabolism [2] | inhibition [3] | also measured |
| --- | --- | --- | --- | --- |
| O=C(O)C(=O)c1ccc(O)cc1 | 3 h | metabolite_detected | Active | – |
| O=C1Oc2cc(O)cc(O)c2C1=O | 3 h | metabolite_detected | Active | – |
| O=C(O)C(=O)c1c(O)cc(O)cc1O | 3 h | metabolite_detected | Active | – |
| O=c1c(OOc2c(-c3ccc(O)cc3)oc3cc(O)cc(O)c3c2=O)c(-c2ccc(O)cc2)oc2cc(O)cc(O)c12 | 3 h | metabolite_detected | Active | – |
| O=C(O)c1c(O)cc(O)cc1O | 3 h | metabolite_detected | Active | – |
| O=C1C(=O)C(O)(c2ccc(O)cc2)Oc2cc(O)cc(O)c21 (stereo not drawn) | 3 h | metabolite_detected | Active | – |
| O=c1cc(-c2ccc(O)cc2)oc2cc(O)cc(O)c12 [APIGENIN] | 3 h | metabolite_detected | Active | – |
| O=c1c(O)c(-c2ccccc2O)oc2cc(O)cc(O)c12 [DATISCETIN] | 6 h | – | – | inhibition [4]: Active; remaining at 48 h [5]: > 80%; inhibition [6]: Active; Stability [7]: Stable; Stability [8]: Stable; inhibition [9]: Active; inhibition [10]: Active; inhibition [11]: Active |
| O=c1c(O)c(-c2ccc(O)cc2)oc2cc(O)cc(O)c12 [KAEMPFEROL] | 3 h | – | – | inhibition [4]: Active; Stability [12]: Unstable; Stability [7]: Stable; Drug metabolism [13]: metabolite_detected; degraded at 1 h, 500 µM [14]: 70%; inhibition [15]: Active; degraded at 48 h [16]: > 80%; inhibition [11]: Active |
| O=c1c(O)c(-c2ccc(O)cc2O)oc2cc(O)cc(O)c12 [MORIN] | 10 h | – | – | inhibition [4]: Active; remaining at 48 h [5]: > 80%; Stability [7]: Stable; Stability [8]: Stable; inhibition [9]: Active; inhibition [10]: Active; inhibition [11]: Active |
| O=C(O)c1ccc(O)cc1 [PARABEN] | 3 h | metabolite_detected | Active | – |
| O=Cc1c(O)cc(O)cc1O [PHLOROGLUCINALDEHYDE] | 3 h | metabolite_detected | Active | – |
